What all share (type): functional
Test [1] relates to Mycobacterium tuberculosis. Nature of the test: Antibacterial activity against qcrB-resistant Mycobacterium tuberculosis harbouring T313A mutant assessed as bacterial growth inhibition measured after 7 days by resazurin based assay. Conditions: time 7 day. Background: Alamar Blue is a resazurin reagent that responds to reducing activity.
Test [2] has as its system Mycobacterium tuberculosis. Nature of the test: Antibacterial activity against multi-drug resistant Mycobacterium tuberculosis clinical isolate PT12 assessed as bacterial growth inhibition measured after 7 days by resazurin based assay. The note with it: 168 h, time 7 day.
In test [3] the test system is Mycobacterium tuberculosis. Nature of the test: Antibacterial activity against multi-drug resistant Mycobacterium tuberculosis clinical isolate PT2 assessed as bacterial growth inhibition measured after 7 days by resazurin based assay. Conditions: 168 h, time 7 day.
In test [4] the test system is Mycobacterium tuberculosis. Nature of the test: Antibacterial activity against multi-drug resistant Mycobacterium tuberculosis clinical isolate PT20 assessed as bacterial growth inhibition measured after 7 days by resazurin based assay. The note with it: 168 h, time 7 day.

Each structure is given as a SMILES string. Values after ≈ are worked out from the molar mass of the structure shown.

For `COc1ccc2nc(C)cc(OCC(=O)Nc3ccc(N4CCC(c5ccc(OC(F)(F)F)cc5)CC4)cc3)c2c1`, the MIC was over 8.8 µM in test [1], under 0.02 µM in test [2], under 0.02 µM in test [3] and under 0.02 µM in test [4].
Take `Cc1cc(OCC(=O)Nc2ccc(N3CCC(c4ccccc4)CC3)cc2)c2cc(Br)ccc2n1`: the MIC is over 9.4 µM in test [1], under 0.02 µM in test [2], under 0.02 µM in test [3] and under 0.02 µM in test [4].
Consider `COc1ccc2nc(C)cc(OCC(=O)Nc3ccc(N4CCC(c5ccccc5)CC4)cc3)c2c1`, for which the MIC in test [1] was over 10.4 µM; in test [2], under 0.02 µM; in test [3], under 0.02 µM; in test [4] it was under 0.02 µM.
As for `Cc1cc(OCC(=O)Nc2ccc(N3CCC(c4ccccc4)CC3)cc2)c2cc(Cl)ccc2n1`, the MIC in test [1] is over 10.3 µM; in test [2], under 0.02 µM; in test [3], under 0.02 µM; in test [4], under 0.02 µM.
Take `NNC(=O)c1ccncc1` [ISONIAZID]: the MIC in test [1] came out at 2.3 µM (≈ 0.315 µg/mL); in test [2] it was 146 µM (≈ 20 µg/mL).
For `CO[C@H]1/C=C/O[C@@]2(C)Oc3c(C)c(O)c4c(O)c(c(/C=N/N5CCN(C)CC5)c(O)c4c3C2=O)NC(=O)/C(C)=C\C=C\[C@H](C)[C@H](O)[C@@H](C)[C@@H](O)[C@@H](C)[C@H](OC(C)=O)[C@@H]1C` [RIFAMPIN], the minimum inhibitory concentration (MIC) in test [2], in test [3] and in test [4] was over 48.6 µM throughout.

Broadly, the MIC is the lowest concentration found to suppress growth.

The record behind these values is ChEMBL document CHEMBL5335868, “Exploring Scaffold Hopping for Novel 2-(Quinolin-4-yloxy)acetamides with Enhanced Antimycobacterial Activity” (ACS Med Chem Lett, 2024).
